biological target: T1, Human Parathyroid Calcium Receptor (“HuPCaR”) (Homo sapiens, UniProt P41180); assay: Calcium Receptor Binding Assay (3H ligand displacement, HEK 293 4.0-7 membranes); conditions: 2 nM 3H compound, 4° C. 30 min, 10 uM was the limit of the assay
T1 construct: expressed in transfected cells; host or cells: HEK 293 4.0-7 (plasma membrane preparation)
T1 sequence (P41180 20-1078): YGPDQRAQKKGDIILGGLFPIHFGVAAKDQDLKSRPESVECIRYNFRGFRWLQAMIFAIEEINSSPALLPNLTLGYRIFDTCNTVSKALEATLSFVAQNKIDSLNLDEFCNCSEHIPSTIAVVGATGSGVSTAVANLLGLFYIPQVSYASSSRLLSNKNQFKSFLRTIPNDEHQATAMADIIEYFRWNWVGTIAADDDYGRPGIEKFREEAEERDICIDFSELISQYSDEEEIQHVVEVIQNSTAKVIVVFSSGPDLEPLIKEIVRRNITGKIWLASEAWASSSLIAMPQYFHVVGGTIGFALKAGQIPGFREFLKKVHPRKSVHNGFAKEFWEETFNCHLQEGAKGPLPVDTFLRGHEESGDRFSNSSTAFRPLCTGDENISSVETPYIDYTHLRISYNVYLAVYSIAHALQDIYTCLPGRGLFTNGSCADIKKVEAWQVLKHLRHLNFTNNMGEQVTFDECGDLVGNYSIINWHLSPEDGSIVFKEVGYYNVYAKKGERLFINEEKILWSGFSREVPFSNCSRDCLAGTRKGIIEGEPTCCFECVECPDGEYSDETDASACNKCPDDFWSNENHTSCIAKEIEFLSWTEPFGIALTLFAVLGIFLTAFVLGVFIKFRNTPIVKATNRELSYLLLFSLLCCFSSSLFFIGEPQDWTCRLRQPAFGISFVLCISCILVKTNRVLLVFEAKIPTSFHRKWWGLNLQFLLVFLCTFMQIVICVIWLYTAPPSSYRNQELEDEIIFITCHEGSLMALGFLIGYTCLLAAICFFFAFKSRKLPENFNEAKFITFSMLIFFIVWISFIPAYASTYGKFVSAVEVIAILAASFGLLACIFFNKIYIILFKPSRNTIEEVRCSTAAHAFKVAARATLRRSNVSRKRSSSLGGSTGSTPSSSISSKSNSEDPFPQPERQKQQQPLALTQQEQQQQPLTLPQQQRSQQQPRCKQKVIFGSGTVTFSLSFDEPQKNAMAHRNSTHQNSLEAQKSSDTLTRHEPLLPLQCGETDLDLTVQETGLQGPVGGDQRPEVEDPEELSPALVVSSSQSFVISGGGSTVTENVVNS
Procedure: HEK 293 4.0-7 cells stably transfected with the Human Parathyroid Calcium Receptor (“HuPCaR”) were scaled up in T180 tissue culture flasks. Plasma membrane was obtained by polytron homogenization or glass douncing in buffer (50 mM Tris-HCl pH 7.4, 1 mM EDTA, 3 mM MgCl2) in the presence of a protease inhibitor cocktail containing 1 uM Leupeptin, 0.04 uM Pepstatin, and 1 mM PMSF. Aliquoted membrane was snap frozen and stored at −80° C. ^3H labeled compound was radiolabeled to a radiospecific activity of 44 Ci/mmole and was aliquoted and stored in liquid nitrogen for radiochemical stability.
A typical reaction mixture contained 2 nM ^3H compound ((R,R)—N-4′-Methoxy-t-3-3′-methyl-1′-ethylphenyl-1-(1-naphthyl)ethylamine), or ^3H compound (R)—N-[2-Hydroxy-3-(3-chloro-2-cyanophenoxy)propyl]-1,1-dimethyl-2-(4-methoxyphenyl)ethylamine with 4-10 ug membrane in homogenization buffer containing 0.1% gelatin and 10% EtOH in a reaction volume of 0.5 mL. Incubation was performed in 12×75 polyethylene tubes in an ice water bath. To each tube 25 uL of test sample in 100% EtOH was added, followed by 400 uL of cold incubation buffer, and 25 uL of 40 nM ^3H-compound in 100% EtOH for a final concentration of 2 nM. The binding reaction was initiated by the addition of 50 uL of 80-200 ug/mL HEK 293 4.0-7 membrane diluted in incubation buffer, and allowed to incubate at 4° C. for 30 min. Wash buffer was 50 mM Tris-HCl containing 0.1% PEI. Nonspecific binding was determined by the addition of 100-fold excess of unlabeled homologous ligand, and was generally 20% of total binding. The binding reaction was terminated by rapid filtration onto 1% PEI pretreated GF/C filters using a Brandel Harvestor. Filters were placed in scintillation fluid and radioactivity assessed by liquid scintillation counting.

IC50, > 10 µM:
CC(C)(Cc1ccccc1)NC[C@@H](O)c1cc(CCC(=O)O)cc(F)c1F [Example 13, 3-(3-{(1S)-2-[(1,1-dimethyl-2-phenylethyl)amino]-1-hydroxyethyl}-4,5-difluorophenyl)propanoic acid]
COc1ccc(CCC(C)(C)NC[C@@H](O)c2cc(CCC(=O)O)cc(F)c2F)cc1 [Example 17, 3-{3-[(1S)-2-([1,1-dimethyl-3-[4-(methyloxy)phenyl]propyl}amino)-1-hydroxyethyl]-4,5-difluorophenyl]propanoic acid]
CC(C)(Cc1cccs1)NC[C@@H](O)c1cc(CCC(=O)O)cc(F)c1F [Example 21, 3-[3-((1S)-2-{[1,1-dimethyl-2-(2-thienyl)ethyl]amino}-1-hydroxyethyl)-4,5-difluorophenyl]propanoic acid]

biological target: T2, human calcium receptor (Homo sapiens, UniProt P41180); assay: Calcium Receptor Inhibitor Assay (block of intracellular Ca2+ increase elicited by extracellular Ca2+, fluo-3); assay type: cell-based; conditions: HEK 293 4.0-7 cells stably expressing the human calcium receptor; 10 uM was the limit of the assay; read-out: IC50 for blocking increases of intracellular Ca2+ elicited by extracellular Ca2+
T2 construct: expressed in transfected cells; host or cells: HEK 293 4.0-7
T2 sequence (P41180 20-1078): T1 sequence (P41180 20-1078)
Procedure: Calcilytic activity was measured by determining the IC50 of the test compound for blocking increases of intracellular Ca^2+ elicited by extracellular Ca^2+ in HEK 293 4.0-7 cells stably expressing the human calcium receptor. HEK 293 4.0-7 cells were constructed as described by Rogers et al., J. Bone Miner. Res. 10 Suppl. 1:S483, 1995 (hereby incorporated by reference to the extent required to conduct the present assay). Intracellular Ca^2+ increases were elicited by increasing extracellular Ca^2+ from 1 to 1.75 mM. Intracellular Ca^2+ was measured using fluo-3, a fluorescent calcium indicator.
Cells were maintained in T-150 flasks in selection media (DMEM supplemented with 10% fetal bovine serum and 200 ug/mL hygromycin B), under 5% CO2:95% air at 37° C. and were grown up to 90% confluency. The medium was decanted and the cell monolayer was washed twice with phosphate-buffered saline (PBS) kept at 37° C. After the second wash, 6 mL of 0.02% EDTA in PBS was added and incubated for 4 minutes at 37° C. Following the incubation, cells were dispersed by gentle agitation. Cells from 2 or 3 flasks were pooled and pelleted (100×g). The cellular pellet was resuspended in 10-15 mL of SPF-PCB+ and pelleted again by centrifugation. This washing was done twice.
Sulfate- and phosphate-free parathyroid cell buffer (SPF-PCB) contained 20 mM Na-Hepes, pH 7.4, 126 mM NaCl, 5 mM KCl, and 1 mM MgCl2. SPF-PCB was made up and stored at 4° C. On the day of use, SPF-PCB was supplemented with 1 mg/mL of D-glucose and 1 mM CaCl2 and then split into two fractions. To one fraction, bovine serum albumin (BSA; fraction V, ICN) was added at 5 mg/mL (SPF-PCB+). This buffer was used for washing, loading and maintaining the cells. The BSA-free fraction was used for diluting the cells in the cuvette for measurements of fluorescence.
The pellet was resuspended in 10 mL of SPF-PCB+ containing 2.2 uM fluo-3 (Molecular Probes) and incubated at room temperature for 35 minutes. Following the incubation period, the cells were pelleted by centrifugation. The resulting pellet was washed with SPF-PCB+. After this washing, cells were resuspended in SPF-PCB+ at a density of 1-2×10^6 cells/mL.
For recording fluorescent signals, 300 uL of cell suspension were diluted in 1.2 mL of SPF buffer containing 1 mM CaCl2 and 1 mg/mL of D-glucose. Measurements of fluorescence were performed at 37° C. with constant stirring using a spectrofluorimeter. Excitation and emission wavelengths were measured at 485 and 535 nm, respectively. To calibrate fluorescence signals, digitonin (5 mg/mL in ethanol) was added to obtain Fmax, and the apparent Fmin was determined by adding Tris-EGTA (2.5 M Tris-Base, 0.3 M EGTA). The concentration of intracellular calcium was calculated using the following equation: Intracellular calcium=[…]; where Kd=400 nM.
To determine the potential calcilytic activity of test compounds, cells were incubated with test compound (or vehicle as a control) for 90 seconds before increasing the concentration of extracellular Ca^2+ from 1 to 2 mM. Calcilytic compounds were detected by their ability to block, in a concentration-dependent manner, increases in the concentration of intracellular Ca^2+ elicited by extracellular Ca^2+.

IC50, > 10 µM:
Cc1ccc(CC(C)(C)NC[C@@H](O)c2cc(CCC(=O)O)cc(F)c2F)s1 [Example 16, 3-[3-((1S)-2-{[1,1-dimethyl-2-(5-methyl-2-thienyl)ethyl]amino}-1-hydroxyethyl)-4,5-difluorophenyl]propanoic acid]
COc1ccc(CCC(C)(C)NC[C@@H](O)c2cc(CCC(=O)O)cc(F)c2F)cc1 [Example 17, 3-{3-[(1S)-2-([1,1-dimethyl-3-[4-(methyloxy)phenyl]propyl}amino)-1-hydroxyethyl]-4,5-difluorophenyl]propanoic acid]
Cc1ccc(CC(C)(C)NC[C@@H](O)c2cc(CCC(=O)O)cc(F)c2F)cc1F [Example 18, 3-[3,4-difluoro-5-((1S)-2-{[2-(3-fluoro-4-methylphenyl)-1,1-dimethylethyl]amino}-1-hydroxyethyl)phenyl]propanoic acid]
CSc1ccc(CC(C)(C)NC[C@@H](O)c2cc(CCC(=O)O)cc(F)c2F)cc1 [Example 19, 3-{3-[(1S)-2-({1,1-dimethyl-2-[4-(methylthio)phenyl]ethyl}amino)-1-hydroxyethyl]-4,5-difluorophenyl}propanoic acid]
CC(C)(Cc1ccc(C(C)(C)C)cc1)NC[C@@H](O)c1cc(CCC(=O)O)cc(F)c1F [Example 20, 3-{3-[(1S)-2-({2-[4-(1,1-dimethylethyl)phenyl]-1,1-dimethylethyl}amino)-1-hydroxyethyl]-4,5-difluorophenyl}propanoic acid]
CC(C)(Cc1cccs1)NC[C@@H](O)c1cc(CCC(=O)O)cc(F)c1F [Example 21, 3-[3-((1S)-2-{[1,1-dimethyl-2-(2-thienyl)ethyl]amino}-1-hydroxyethyl)-4,5-difluorophenyl]propanoic acid]
CC(C)(CCc1ccccc1)NC[C@@H](O)c1cc(CCC(=O)O)cc(F)c1F [Example 22, 3-(3-{(1S)-2-[(1,1-dimethyl-3-phenylpropyl)amino]-1-hydroxyethyl}-4,5-difluorophenyl)propanoic acid]
CC(C)(Cc1ccc(Br)cc1)NC[C@@H](O)c1cc(CCC(=O)O)cc(F)c1F [Example 23, 3-[3-((1S)-2-{[2-(4-bromophenyl)-1,1-dimethylethyl]amino}-1-hydroxyethyl)-4,5-difluorophenyl]propanoic acid]
CC(C)(Cc1ccc(Cl)s1)NC[C@@H](O)c1cc(CCC(=O)O)cc(F)c1F [Example 24, 3-[3-((1S)-2-{[2-(5-chloro-2-thienyl)-1,1-dimethylethyl]amino}-1-hydroxyethyl)-4,5-difluorophenyl]propanoic acid]
